{"source": "PubChem BioAssay (NCI)", "assay_in_all_cases": "NCI tumour cell line growth inhibition, 48 h", "key": {"P388/ADR leukemia": {"test_system": "P388/ADR leukemia"}, "DLD-1 colon": {"test_system": "DLD-1 colon"}, "SNB-78 CNS": {"test_system": "SNB-78 CNS"}, "HOP-18 NSCLC": {"test_system": "HOP-18 NSCLC"}, "P388 leukemia": {"test_system": "P388 leukemia"}, "DMS 273 small cell lung": {"test_system": "DMS 273 small cell lung"}, "M19-MEL melanoma": {"test_system": "M19-MEL melanoma"}, "KM20L2 colon": {"test_system": "KM20L2 colon"}, "XF 498 CNS": {"test_system": "XF 498 CNS"}}, "note": "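Compound exposure: 48 hours, 5 concentrations, 96-well plates. TGI denotes the concentration required for complete inhibition of growth.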", "data": [{"smiles": "N/C(=N\\N=C\\c1ccc2c(c1)OCCO2)NO", "values": [{"measurement": "TGI", "setting": "P388/ADR leukemia", "value": 40.5, "unit": "µM"}, {"measurement": "TGI", "setting": "DLD-1 colon", "value": "> 100", "unit": "µM"}, {"measurement": "TGI", "setting": "SNB-78 CNS", "value": "> 100", "unit": "µM"}, {"measurement": "TGI", "setting": "HOP-18 NSCLC", "value": "> 100", "unit": "µM"}, {"measurement": "TGI", "setting": "P388 leukemia", "value": 47.3, "unit": "µM"}, {"measurement": "TGI", "setting": "DMS 273 small cell lung", "value": 57.6, "unit": "µM"}, {"measurement": "TGI", "setting": "M19-MEL melanoma", "value": 98.6, "unit": "µM"}, {"measurement": "TGI", "setting": "KM20L2 colon", "value": "> 52", "unit": "µM"}, {"measurement": "TGI", "setting": "XF 498 CNS", "value": "> 30.6", "unit": "µM"}]}]}
